Like-named read-outs stand apart in the source and are kept apart here.
Legend:
[1] = system: A549 (lung adenocarcinoma); experiment: SRB (sulforhodamine B) viability assay, A549; assay type: cell-based, human; conditions: for IC50 / IC50 ± SD, A549 (Lung), Hypoxia: SRB assay
Procedure: The cytotoxicity of the complexes C1–C5 was estimated by examining cell viability using the sulforhodamine B assay. […] However, due to the very poor solubility of the most polar complex C5 in acetone, its initial solution had to be prepared in polar N,N-dimethylacetamide (DMA) (see Section 3.7). Cisplatin was used as the reference drug. The results are presented as IC50 (50% inhibitory concentration), i.e., concentrations that reduce cell survival by 50%. The test was conducted on three cancer cell lines and one normal healthy cell line, namely, breast adenocarcinoma (MCF-7), ovarian adenocarcinoma (ES-2), lung adenocarcinoma (A549), and murine embryonic fibroblast (BALB/3T3).
Three solid tumor cell lines were used in this study: MCF-7 (breast adenocarcinoma), ES-2 (ovarian adenocarcinoma), and A549 (lung adenocarcinoma). The BALB/3T3 (mouse embryonic fibroblast) cell line was used as a comparative nonpathological tissue. All cell lines were purchased from the American Type Culture Collection (ATCC, Rockville, MD, USA). The preparation of cell cultures for cytotoxicity experiments is described in detail in the following article.
The initial solutions for subsequent dilutions in biological medium were prepared in a similar manner as described previously. […] The complex C5 was dissolved in the dimethylacetamide (DMA). All the initial solutions were prepared ex tempore and then were added to the culture medium 1:9 (v/v) to obtain a stock solution of 1 mg/mL.
The test was prepared and performed in the same manner as detailed in the following cited works.

[2] = Reactivity with L-glutathione (GSH), UV photometry at 260 nm; assay type: in vitro ADME; conditions: for Half-time, t1/2 of reaction with GSH: 2 mM GSH, 10 mmol/L NaCl, 10 mmol/L Tris x HCl pH 7.4, 37 °C, UV 260 nm
From the text: Deactivation of platinum anticancer drugs occurs in the organism at both systemic and intracellular levels. After intravenous administration, these drugs undergo a series of metabolic processes, and the concentration of their active forms can be reduced by various mechanisms. At the systemic level, the first step in deactivation is plasma protein binding: Platinum drugs rapidly bind to plasma proteins (over 90%), especially albumin [32]. […] At the cellular level, platinum drugs are neutralized by binding to intracellular proteins and peptides such as glutathione and metallothionein [33]. Binding to peptide and protein thiol and thioether moieties, which are the primary binding sites for such reactions, prevents the drug from reaching DNA and may be responsible for its nephrotoxicity. As in previous studies, we assessed the susceptibility of the tested compounds to this type of inactivation in the cancer tissues by measuring the half-life of the compound in an aqueous solution containing a physiological concentration of the reduced form of glutathione (GSH) using UV photometry at a wavelength of 260 nm similarly as in Hagrman et al.. Using the same methodology allowed us to directly compare the GHS reactivity of nitroisothiazole compounds with their pyrazole and isoxazole analogues. As a control, the UV spectra of complexes C1 and C2 in dioxane were recorded to check whether there was excessive absorption at a wavelength of 260 nm, which could interfere with the measurement of the reaction of the complexes with glutathione (visualization of the UV spectra can be found in the Supplementary Materials, Figures S46 and S47).
The experiment was conducted in a similar manner to that described in previous publications. First, 30 μL of 60 mM solution of the appropriate complex (cis C1, trans C2, trans C3 and trans C4) in purified and anhydrous distilled dioxane was mixed with 3 mL of a 2 mM solution of reduced L-glutathione (GSH) in an argon-saturated medium containing 10 mmol/L NaCl and 10 mmol/L Tris x HCl buffer, pH 7.4, to achieve a final concentration of 6 µM of the tested complexes. The measurement was carried out at 37 °C. The progress of the reaction was monitored by UV absorption spectrometry at a wavelength of 260 nm. Dioxane was used to dissolve the tested Pt complexes due to the lack of UV absorption of this solvent at the used wavelength. The GSH solution was saturated with argon to remove oxygen and thus prevent oxidation of GSH with the formation of S-S bonds, which would interfere with the measurement results.

[3] = Solubility in solvents (qualitative); assay type: physicochemical
[4] = normoxia, read-out: IC50 ± SD, A549 (Lung), Normoxia

Row | Molecule | IC50 ([1]; hypoxia, read-out: IC50 ± SD, A549 (Lung), Hypoxia) | IC50 [1, 4] | selectivity index (SI), healthy cells vs A549 ([1]; ratio of cytotoxicity towards healthy BALB/3T3 cells to cytotoxicity towards A549) | Half-time, t1/2 of reaction with GSH [2] | reaction with GSH, times faster than oxaliplatin ([2]; from half-times of Table 5) | solubility in acetone [3] | IC50 ± SD, A549 (Lung), Hypoxia ([1]; hypoxia) | Half-time, t1/2 of reaction with GSH ([2]; listed as trans-complex C3) | reaction with GSH, times faster than transplatin ([2]; from half-times of Table 5) | solubility in chloroform [3] | Half-time, t1/2 of reaction with GSH ([2]; listed as cis-complex C1) | reaction with GSH, times faster than cisplatin ([2]; from half-times of Table 5)
1 | Cc1nscc1[N+](=O)[O-].Cc1nscc1[N+](=O)[O-].[Cl][Pt][Cl] [C2, trans-Dichlorobis(3-methyl-4-nitroisothiazole)platinum(II)] | 6.52 ± 2.28 µM | 6.34 ± 1.47 µM | 0.2 | ~29 min | about 1.5 times | weakly soluble |  |  |  |  |  | 
2 | COC(=O)c1snc(C)c1[N+](=O)[O-].Cc1nscc1[N+](=O)[O-].[Cl][Pt][Cl] [C3, trans-Dichloro-3-methyl-4-nitroisothiazole 3-Methyl-4-nitro-5-(methoxycarbonyl)isothiazole Platinum(II)] |  | 5.74 ± 0.65 µM |  | about 20 s |  | slightly soluble | inactive | 0.333 min | 12 times | very poorly soluble |  | 
3 | Dichlorobis(3-methyl-4-nitroisothiazole)platinum(II) [C1] |  | 31.4 ± 18.8 µM |  | about 16 min |  |  | inactive |  |  |  | 16 min | approximately three
4 | COC(=O)c1snc(C)c1[N+](=O)[O-].COC(=O)c1snc(C)c1[N+](=O)[O-].[Cl][Pt][Cl] [C4, trans-Dichlorobis(3-methyl-4-nitro-5-(methoxycarbonyl)isothiazole)platinum(II)] |  | 40.3 ± 19.9 µM |  | ~0.167 min |  | slightly soluble | inactive |  | 24 times | very poorly soluble |  | 

From paper PMC12786457, “Studies on the Complexation of Platinum(II) by Some 4-Nitroisothiazoles and the Cytotoxic Activity of the Resulting Complexes” (Molecules, 2025)
